ChEMBL document CHEMBL3576768, “α-Glucosidase Inhibitors from a Xylaria feejeensis Associated with Hintonia latiflora” (J Nat Prod, 2015)

Key:
[1] = (§1) Inhibition of Saccharomyces cerevisiae alpha-glucosidase using pNPG as substrate preincubated for 10 mins followed by substrate addition measured after 20 mins by spectrophotometric analysis
Saccharomyces cerevisiae = assay: as §1

| IC50 [1] [µM] | inhibition (Saccharomyces cerevisiae) | SMILES |
| --- | --- | --- |
| 545 | – | C[C@H]1O[C@H](O[C@H]2[C@H](O)[C@@H](O)[C@@H](O[C@H]3[C@H](O)[C@@H](O)C(O)O[C@@H]3CO)O[C@@H]2CO)[C@H](O)[C@@H](O)[C@@H]1N[C@H]1C=C(CO)[C@@H](O)[C@H](O)[C@H]1O (stereo not given in full) [ACARBOSE] |
| 441 | Dose-dependent effect | C[C@@H]1OC(=O)c2c(O)cccc2[C@H]1O |
| 549 | Dose-dependent effect | C[C@@H]1OC(=O)c2c(O)cccc2[C@@H]1O |
